We go through 14 molecules from patent publication US11311541B2 (priority 2014, dated 2022).

Series [1] has as its target ROCK1 (Homo sapiens (Human), UniProt Q13464). The format is biochemical.
Description: (§2) Dose response curves for Rho-kinase inhibition were derived from a Invitrogen Z′-LYTE™ Kinase Assay Kit (Invitrogen catalog number PV3793). Purified active ROCK1 and ROCK2 were obtained from Invitrogen (catalog numbers ROCK1, PV3691 and ROCK2, PV3759). The kit components include a coumarin and fluorescein labeled peptide based on myosin light chain 2 ([sequence]), a proprietary protease containing development reagent and a proprietary Stop buffer used to terminate the development reaction. The inhibitory activities of compounds are measured according to the manufactures protocol. […] This mixture is overlayed into a white 96-well half area plate and the reaction is initiated with the addition of 5 uM ATP for ROCK1 or 12 uM ATP for ROCK2. The assay proceeds at room temperature for 1 hour followed by the addition of development reagent, and further incubation for 1 hour at room temperature. STOP reagent is then added and the reaction and immediately the coumarin and fluorescein emission signals are read on a Tecan Infinite M1000 fluorescence plate reader (excitation: 400 nm; emission 445 and 520 nm, respectively). By comparing the emission ratios of the test samples against control samples, percent phosphorylation values are calculated and the concentration of inhibitor that produces ½ inhibition of kinase activity (IC50) is determined using Prism.
Series [2] has as its target T1, ROCK2 (Homo sapiens (Human), UniProt O75116). Particulars: read-out: ROCK2 IC50.
Description: as §2
Series [3] relates to cytokine secretion. In words: cytokine secretion, FIG. 10. Format: cell-based.
For series [4], the system named is CD4+CD25+ human Tregs. In words: Treg inhibition of IL-17 secretion in CD4+CD25- T cells. Format: cell-based. The conditions noted are these: Tregs treated 3 hours; Treg:Teff 1:4 and 1:9.
For series [5], the system named is CD4+ human T cells. In words: cytokine secretion of anti-CD3/CD28 stimulated CD4+ T cells in vitro. The format is cell-based. Particulars: anti-CD3/CD28 stimulation. The text has this: (§1) Activation of resting T cells, resulting in cytokine secretion and proliferation, involves two distinct signals from antigen-presenting cells (APCs), mimicked by co-stimulation of the T cell receptor (TCR)/CD3 complex and the CD28 receptor.

Series [6] deals with human CD4+ T cells. In words: Foxp3+ cells among CD4+ T cells. The format is cell-based. The conditions noted are these: 5 days of Th17 skewing activation. The source says: Foxp3 is a lineage-specific transcription factor for Tregs and is crucial to the development and inhibitory function of these cells. STAT5 signaling positively regulates the induction and stabilization of Foxp3 expression in T cells in vitro and in vivo. […] (FIG. 14).

Series [7] relates to murine model of chronic GVHD. The series can be described thus: murine model of chronic GVHD, lung pathology.
Description: On day −1, recipients received total-body irradiation (TBI) by X-ray (8.5 Gy). Donor bone marrow (BM) was T-cell depleted with anti-Thy 1.2 mAb followed by rabbit complement. On day 0, recipients received 10^7 BM cells with or without allogeneic splenocytes (10^6 cells). Weights of individual mice were recorded twice weekly. […] The analysis of pulmonary function was performed on day 28 (before the treatment) and on day 56. Anesthetized mice were weighed, and lung function was assessed by wholebody plethysmography with the Flexivent system (SCIREQ) and analyzed with Flexivent Version 5.1 software. Survival data were analyzed by life-table methods, and actuarial survival rates are shown. Group comparisons were made by log-rank test.
Lungs were inflated by infusion of 1 mL of optimal cutting temperature compound:PBS (3:1) intratracheally prior to harvest. Six-micrometer cryosections were fixed for 5 minutes in acetone and stained with mMasson's trichrome staining kit (Sigma-Aldrich) for detection of collagen deposition. Collagen deposition was quantified on trichrome-stained sections as a ratio of area of blue staining to area of total staining by use of the Adobe mPhotoshop CS3 analysis tool (Adobe Systems). For measuring Ig deposition, acetone-fixed 6-m lung cryosections were blocked with horse serum and streptavidin-biotin blocking kit (Vector) and stained with fluorescein isothiocyanate (FITC)-labeled anti-mouse-Ig (BD Pharmingen). Antibody deposition was quantified by area of Ig staining per 100-μm section.
Mice were treated as described above, except that twelve animals per group were tested. […] (n=3/group). Spleens were also collected for analysis on day 56. […] Pulmonary function tests and analysis of body weight were performed as described above.
Series [8] in a line: plasma KD025 concentration in murine chronic GVHD. Format: in vivo, mouse. Particulars: day 56, 1-hr pre-dose and 1-hr post-dose.
Description: Mice were treated as described above, except that twelve animals per group were tested. […] (n=3/group).
For series [9], the system named is STAT3 phosphorylation. In words: STAT3 phosphorylation in T cells. The format is cell-based, human. The procedure:
STAT3 plays a critical role in Th17 differentiation via regulation of RORγt expression and direct binding to the IL-17 and IL-21 promoters. […] In a different experiment, cells were cultured under Th17-skewing conditions for 5 days and then treated with the ROCK2 selective inhibitor for 3 hours.

In series [10] the test system is murine model of chronic GVHD. In words: germinal centers and Tfh cells in spleen, murine model of chronic GVHD. The format is in vivo, mouse. Particulars: 150 mg/kg. The procedure: Fixed 6-μm spleen cryosections of mice were stained with rhodamine-conjugated peanut agglutinin (PNA; Vector Laboratories), and the size of the PNA-positive sections was measured and defined as germinal centers. For flow cytometric analysis of Tfh cells and GC B cells, single-cell suspensions from spleens were obtained and labeled with anti-CD4, anti-CXCR5, and anti-PD1 antibodies (eBioscience). Cells were analyzed on a BD LSRFortessa cell analyzer.

Series [11] concerns PBMCs of treated patients. In words: ex vivo stimulation of cytokine production in PBMCs isolated from treated patients. Further details: species or system human. The conditions noted are these: 120 mg/day, days 1 and 8-14; anti-CD3/CD28 72 hours. On the procedure:
Peripheral blood mononuclear cells (PBMCs) were collected at the start and end of the trial and stimulated by plating on immobilized anti-CD3/CD28 antibodies for 72 hours, and levels of IL-17, IL-21, and IFN-γ were measured. […] No effect on IFN-γ was observed.

The subject of series [12] is TGF-β-induced STAT3, MLC and SMAD2/3 phosphorylation. The series can be described thus: TGF-β-induced phosphorylation in Tregs. Format: cell-based. The text has this:
(FIG. 16). TGF-3 is involved in development and function of both Th17 and Treg subsets of T cells. However, when Tregs are regulated in Smad2/3-dependent signaling mechanism, TGF-β regulates Th17 cells in Smad2/3 independent manner that is considered as non-canonical TGF-β-induced signaling.

Series [13] deals with STAT3/STAT5 phosphorylation, RORγt, IRF4, Bcl6 in spleens. In words: Western blot of spleen cells, murine model of cGVHD. The format is in vivo, mouse. The conditions noted are these: treatment days 28-56.
Description: Mice were treated as described above, except that twelve animals per group were tested. […] (n=3/group). Spleens were also collected for analysis on day 56. […] Single cell suspensions were prepared from the isolated spleens. Cells were lysed in RIPA buffer and analyzed for protein content. Sample buffer was then added, and, after boiling, the samples, containing equal amounts of proteins, were separated by SDS-PAGE gel electrophoresis and transferred to a nitrocellulose membrane. Membranes were blocked and probed with specific antibodies overnight. Actin was used as a loading control. Anti-pSTAT3 pSTAT5 and Bcl6 antibodies were purchased from Cell Signaling Technologies (Beverly, Mass.). Anti-IRF4 (sc-48338) and anti-RORγt (14-6988) were obtained from Santa Cruz Biotechnology Inc. and eBioscience respectively. Immunoreactive protein bands were visualized using an HRP-conjugated secondary antibodies and an enhanced ECL system.
For series [14], the system named is CD4+ human T cells. The series can be described thus: T cell proliferation in response to TCR stimulation in vitro. The format is cell-based.
Description: as §1

Series [15] concerns CD4+ T cells from RA patients. In words: cytokine secretion ex vivo in CD4+ T cells from RA patients. Format: cell-based, human. The source says: Among RA patients, inhibition of IFN-γ production was correlated with disease activity score (DAS). (FIG. 12B).
Series [16] relates to sclerodermatous cGVHD mouse model. The series can be described thus: sclerodermatous cGVHD mouse model (B10.D2 into BALB/c). The format is in vivo. The source says: In this model, BALB/c (H-2^d) mice received 775 cGy of total body radiation on day 0 and were transplanted with bone marrow and T-cells from B10.D2 (H-2^d) mice. […] The GVHD score in this model combined changes in weight lost, posture, activity, fur texture, and skin integrity (FIG. 26). Sclerodermatous cGVHD mice were further analyzed as depicted in FIGS. 27-35.

The target in series [17] is T1, ROCK2. In words: biochemical.
Description: as §2
Setting [18] is: Table 3 (Example 203, method not given).
The mark [19] stands for this setting: day 98, 42 days after last administration.
[20] abbreviates: 2 RA patients, intracellular staining.
[21] abbreviates: RA patients, anti-CD3/CD28, ex vivo.

Entries after “also recorded” stand apart in the source; their conditions may differ. Where two headings read alike, the source gives them in different places.

Chain of ROCK1 (Q13464 1-535): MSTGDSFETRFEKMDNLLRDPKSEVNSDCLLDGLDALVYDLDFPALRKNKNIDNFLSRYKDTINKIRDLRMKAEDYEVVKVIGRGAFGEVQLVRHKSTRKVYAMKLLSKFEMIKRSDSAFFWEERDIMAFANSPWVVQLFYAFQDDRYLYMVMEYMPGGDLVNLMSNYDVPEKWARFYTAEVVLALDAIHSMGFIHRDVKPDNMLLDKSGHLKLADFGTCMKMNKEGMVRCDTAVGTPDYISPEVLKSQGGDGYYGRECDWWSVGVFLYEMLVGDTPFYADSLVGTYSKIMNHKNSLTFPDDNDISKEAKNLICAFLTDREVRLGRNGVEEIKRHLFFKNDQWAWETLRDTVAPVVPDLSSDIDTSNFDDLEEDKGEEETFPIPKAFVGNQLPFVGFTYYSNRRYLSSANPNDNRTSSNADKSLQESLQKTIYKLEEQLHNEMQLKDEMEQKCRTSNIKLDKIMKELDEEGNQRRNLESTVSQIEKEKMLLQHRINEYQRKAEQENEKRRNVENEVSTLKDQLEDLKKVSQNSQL
T1 sequence (O75116 1-552): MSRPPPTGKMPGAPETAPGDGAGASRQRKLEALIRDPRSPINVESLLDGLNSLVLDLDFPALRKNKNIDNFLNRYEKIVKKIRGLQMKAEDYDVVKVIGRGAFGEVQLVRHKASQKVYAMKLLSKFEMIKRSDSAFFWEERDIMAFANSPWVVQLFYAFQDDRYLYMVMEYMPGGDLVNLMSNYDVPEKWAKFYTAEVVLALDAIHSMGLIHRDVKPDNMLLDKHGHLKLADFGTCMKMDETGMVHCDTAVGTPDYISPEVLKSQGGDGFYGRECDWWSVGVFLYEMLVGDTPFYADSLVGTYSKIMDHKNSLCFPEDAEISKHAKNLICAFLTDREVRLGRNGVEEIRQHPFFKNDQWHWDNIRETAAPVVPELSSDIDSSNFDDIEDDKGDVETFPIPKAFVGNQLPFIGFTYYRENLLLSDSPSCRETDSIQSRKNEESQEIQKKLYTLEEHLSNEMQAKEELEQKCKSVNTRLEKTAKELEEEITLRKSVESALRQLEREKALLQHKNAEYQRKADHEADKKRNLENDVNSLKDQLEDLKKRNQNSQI

For the molecule `c1ccc2c(c1)CN(c1nccc(Nc3ccc4[nH]ncc4c3)n1)C2` [Example 182, N-(2-(isoindolin-2-yl)pyrimidin-4-yl)-1H-indazol-5-amine], in series [1] (setting [18]), the half-inhibitory concentration (IC50) (usually the point on the concentration scale where inhibition reaches its midpoint) was over 10 µM.
For the molecule `COc1ccc2c(c1)CN(c1nc(C)c(C)c(Nc3ccc4[nH]ncc4c3)n1)C2` [Example 196, N-(2-(5-methoxyisoindolin-2-yl)-5,6-dimethylpyrimidin-4-yl)-1H-indazol-5-amine], the IC50 in [2] (setting [18]) is over 0.01 µM.
Regarding `COc1ccc2c(c1)CCN(c1nccc(Nc3ccc4[nH]ncc4c3)n1)C2` [Example 191, N-(2-(6-methoxy-3,4-dihydroisoquinolin-2(1H)-yl)pyrimidin-4-yl)-1H-indazol-5-amine], the half-maximal inhibitory concentration (IC50) in series [1] (setting [18]) is over 10 µM.
On the same count and under the same terms, the figure for `COc1ccc2c(c1)CN(c1cc(Nc3ccc4[nH]ncc4c3)ncn1)C2` [Example 193, N-(6-(5-methoxyisoindolin-2-yl)pyrimidin-4-yl)-1H-indazol-5-amine] is over 10 µM.
Regarding `COc1ccc2c(c1)CN(c1nccc(Nc3ccc4[nH]ncc4c3)n1)C2` [Example 181, N-(2-(5-methoxyisoindolin-2-yl)pyrimidin-4-yl)-1H-indazol-5-amine], the “secretion of IL-21” value in [3] (FIG. 10 Panel A) is recorded as “inhibits”. The “inhibition of IL-17 secretion” value in series [3] (FIG. 10 Panel B) is on record as “dose-dependent”.
As to `CC(C)NC(=O)COc1cccc(-c2nc(Nc3ccc4[nH]ncc4c3)c3ccccc3n2)c1` [KD025], in series [4], the “ability of Tregs to suppress IL-17 secretion in CD4+CD25- effector T cells” value is given as “significantly increased”. Also, in [5], the IFN-γ secretion entry is “less robust and significant only at high dose (10 μM)”; the IL-2 secretion entry is “observed only at the highest concentration (10 μM)”; the IL-17 secretion result is recorded as “significantly inhibited”; the IL-21 secretion result is on record as “significantly inhibited”. Besides, the “percentage of Foxp3+ cells” value in series [6] was “significantly increased”. Also, the “pulmonary function (resistance, elastance, compliance)” value in [7] (100 mg/kg i.p. daily from day 28, tested day 56) is “significantly improved and normalized pulmonary function”. Moreover, in series [7] (150 mg/kg), the “antibody deposition in lungs” value was “essentially indistinguishable from samples from uninduced mice” and the “collagen deposition in lungs” value is “essentially indistinguishable from samples from uninduced mice”. Besides, the “effect on cGVHD lung pathology, dose dependence” value in [7] (30, 100, 150 mg/kg) is recorded as “dose dependent”. Further, the body weight entry in series [7] (Example 216, FIG. 23) is given as “no effect”. In series [7] (FIG. 18), the survival rates entry was “no effect”. The body weight entry in series [7] (FIG. 18, 19) is on record as “no effect”. Moreover, in [7] (setting [19]), the lung resistance entry is on record as “dose-dependent decrease” and the respiratory function result is given as “long-lasting improvement; also recorded: Partial improvement”. Also, in [8], the “plasma KD025 concentrations” value is “measurable and generally dose dependent”. In addition, the “phosphorylation of IFR4 and RORγT” value in [9] (separate experiment, FIG. 11C) is given as “reduced phosphorylation”. The “phosphorylation of STAT3” value in series [9] (two designs: pre-treatment then anti-CD3/CD28, Th17-skewing 5 days then 3 hours treatment) is on record as “significantly down-regulates”. In addition, in series [10], the “numbers of CD4+PD1HiCXCR5 Tfh cells in spleen” value was “reversed” and the “numbers of germinal centers in spleen” value is listed as “reversed”. Further, in series [11], the “induction of IL-17 secretion in PBMCs” value is recorded as “significantly inhibited in PBMCs isolated from four of five patients” and the “induction of IL-21 secretion in PBMCs” value is listed as “significantly inhibited in PBMCs from all five patients”. Also, in series [12], the “TGF-β-induced MLC phosphorylation” value is given as “down-regulates”, the “TGF-β-induced STAT3 phosphorylation” value is given as “down-regulates” and the “phosphorylation of SMAD2/3” value was “remains intact”. For the same molecule, in series [13], the “STAT3 phosphorylation in spleens” value is given as “significant reduction”; the “STAT5 phosphorylation in spleens” value is “concurrent increase”; the “protein levels of RORγt, IRF4 and Bcl6 in spleenocytes” value is listed as “dose-dependent decrease”. Moreover, the “proliferation in response to TCR stimulation” value in [14] is reported as “down-regulated their ability to proliferate”. In [15] (setting [20]), the “frequency of IFN-γ-producing cells” value was “significantly reduced the frequencies” and the “frequency of IL-17-producing cells” value was “significantly reduced the frequencies”. In addition, in series [15] (setting [21]), the IFN-γ secretion result is listed as “significantly down-regulated”, the IL-17 secretion result was “significantly down-regulated” and the IL-21 secretion result is “significantly down-regulated”. In addition, the “cervical LN T Cell IFNg” value in [16] (FIG. 32) is on record as “decreased”. Further, in series [16] (i.p. once daily days 19-47), the “development of chronic sclerodermatous cGVHD” value is recorded as “blocked the development”. The GVHD score result in series [16] (i.p. once daily days 19-47, weight lost, posture, activity, fur texture, skin integrity) is recorded as “significantly decreased”.
For `COc1ccc2c(c1)CN(c1cc(Nc3ccc4[nH]ncc4c3)nc(C)n1)C2` [Example 194, N-(6-(5-methoxyisoindolin-2-yl)-2-methylpyrimidin-4-yl)-1H-indazol-5-amine], the values for the half-maximal inhibitory concentration (IC50) in series [17] and in series [1] (setting [18]) were 0.13 to 0.18 µM and over 10 µM, respectively.
Turning to `c1cc(Nc2ccc3[nH]ncc3c2)nc(N2CCc3sccc3C2)n1` [Example 192, N-(2-(6,7-dihydrothieno[3,2-c]pyridin-5(4H)-yl)pyrimidin-4-yl)-1H-indazol-5-amine], the IC50 in [1] (setting [18]) is over 10 µM.
As to `Clc1ccc2c(c1)CN(c1nccc(Nc3ccc4[nH]ncc4c3)n1)C2` [Example 190, N-(2-(5-chloroisoindolin-2-yl)pyrimidin-4-yl)-1H-indazol-5-amine], the IC50 in series [1] (setting [18]) was over 10 µM.
As for `CC(N)c1cccc(-c2nccc(Nc3ccc4[nH]ncc4c3)n2)c1` (stereo not drawn) [Example 147, N-(2-(3-(1-aminoethyl)phenyl)pyrimidin-4-yl)-1H-indazol-5-amine], the half-maximal inhibitory concentration (IC50) is over 5.5 µM in [2] (Table 2, 12 uM ATP) and over 2 µM in series [1] (Table 2, 5 uM ATP).
`COc1ccc2c(c1)CN(c1nccc(Nc3ccc(-c4ccncc4)cc3)n1)C2` [Example 200, 2-(5-methoxyisoindolin-2-yl)-N-(4-(pyridin-4-yl)phenyl)pyrimidin-4-amine]: the IC50 in series [1] (setting [18]) is over 10 µM.
Molecule `COc1ccc2c(c1)CN(c1ccnc(Nc3ccc4[nH]ncc4c3)n1)C2` [Example 188, N-(4-(5-methoxyisoindolin-2-yl)pyrimidin-2-yl)-1H-indazol-5-amine] showed a half-inhibitory concentration (IC50) in series [1] (setting [18]) of over 10 µM.
On to `CC(C)NC(=O)COc1cccc(-c2nc(Nc3ccc4[nH]ncc4c3)cc(C(F)(F)F)n2)c1` [Example 169], for which the IC50 is over 10 µM in [2] (Table 2, 12 uM ATP) and over 10 µM in series [1] (Table 2, 5 uM ATP).
In the case of `c1cc2c(cn1)CN(c1nccc(Nc3ccc4[nH]ncc4c3)n1)C2` [Example 195, N-(2-(1H-pyrrolo[3,4-c]pyridin-2(3H)-yl)pyrimidin-4-yl)-1H-indazol-5-amine], the IC50 in series [1] (setting [18]) was over 10 µM.
